Results on three compounds are retold here after US10478464B2, “Compositions and methods of use” (priority 2009, dated 2019).

pIC50: −log10 of the molar value.

The test system of assay [1] is HOP-92 lung cancer cell lines. Nature of the assay: Cell survival, colorimetric MTT assay, HOP-92. Format: cell-based, human. The note with it: 72 hours; for reduced the survival of HOP92 cell lines by: 100 μM. Here is the method:
1) Against the lung cancer cell lines: The effect of the racemic mixture of 8-HHA and that of the individual enantiomers, namely S and R enantiomers, were examined on the survival of HOP-92 lung cancer cell lines. The cell viability was examined in the exponential growth phase with 100 μM of 8-HHA for 72 hours using colorimetric MTT assay. In separate assays, HOP-92 cells were treated with different concentrations of the S-enantiomer of 8-HHA ranging from 20-100 μM for 72 hours.

Assay [2] deals with SNU449 liver cancer cell line. In words: Cell survival, colorimetric MTT assay, SNU449. It is filed as cell-based. As to conditions: 100 μM, 72 hours. Here is the method: (§1) 2) Against the liver cancer cell lines: The effect of the racemic mixture of 8-HHA and that of the individual enantiomers, namely S and R enantiomers, were examined on survival of PLC/PRF/5 (also referred to as “PLC-5” or “PLC5”), Hep3B and SNU449 (also referred to as “SNU”) liver cancer cell lines. The cell viability was examined in the exponential growth phase with 100 μM of 8-HHA for 72 hours using colorimetric MTT assay. In separate assays, PLC-5 cells were treated with different concentrations of S-enantiomer of 8-HHA ranging from 20-100 μM for 72 hours.

In assay [3] the test system is PARP. Nature of the assay: PARP cleavage in PLC-5 liver cancer cells. It is filed as cell-based. The note with it: PLC-5 cells, 100 μM. The text has this: (§2) PARP cleavage is considered a specific and well established marker of apoptosis. During apoptosis, FAS receptor undergoes down regulation, which is considered as an established indicator of apoptosis. Apoptosis can be induced by a pathway stimulated by FAS receptor binding to FAS ligand and is called extrinsic mechanism. Apoptosis by this pathway results in the reduction of FAS receptor.
(§3) 1) Against liver cancer cell lines: The effect of 8-HHA was examined on apoptosis in liver cancer cell lines.

Assay [4] relates to PLC/PRF/5 liver cancer cell line. In words: Cell survival, colorimetric MTT assay, PLC/PRF/5. It is filed as cell-based. The note with it: 72 hours. Here is the method: as §1
In general terms: Formazan colour is commonly taken as a measure of viable cells.

The test system of assay [5] is FAS receptor. In words: FAS receptor levels in PLC-5 cells. It is filed as cell-based. The note with it: 100 μM, 72 hours. Here is the method:
as §2
PLC-5 cell lines were treated with […] 100 μM for 72 hours.

The test system of assay [6] is Hep3B liver cancer cell line. In words: Cell survival, colorimetric MTT assay, Hep3B. It is filed as cell-based. As to conditions: 100 μM, 72 hours. Here is the method:
as §1

Assay [7] deals with FAS receptor. Nature of the assay: FAS protein levels in HOP-92 cells. It is filed as cell-based, human. The note with it: HOP92 cells, 100 μM, 72 hours. Here is the method:
as §2
2) Against lung cancer cell lines: HOP-92 lung cancer cell lines were treated with 100 μM of (S)-8-HHA for 72 hours.

Assay [8] relates to Bim1. Nature of the assay: Pro-apoptotic Bim1 in HOP92 cells. As to conditions: 100 μM, 72 hours. It is filed as cell-based, human. Here is the method:
Bim1 is a pro-apoptotic protein whose up regulation leads to apoptosis. HOP92 cell lines were treated with 100 μM of S-enantiomer of 8-HHA for 72 hours.

The test system of assay [9] is PARP. In words: PARP cleavage in SNU liver cancer cells. It is filed as cell-based. The note with it: 100 μM.
Text: as §2, §3

In assay [10] the test system is HeLa cells. Nature of the assay: HeLa cell viability by Alamar Blue assay. It is filed as cell-based. The note with it: 24, 48 and 72 hrs. An excerpt:
Assessment of cell viability by alamar blue reduction method is routinely used for illustrating cytotoxic potential of candidate drugs. Alamar blue detects cell viability by utilizing a blue non-fluorescent dye resazurin, which is converted to a pink fluorescent dye, resorufin by cellular metabolic intermediates. The fluorescent signal generated from the assay is proportional to the number of living cells in the sample. Confluent HeLa cells (70-80%) grown in T-75 flasks were detached using trypsin-EDTA. Following centrifugation, the cells pellet was resuspended in DMEM medium and counted using a hemocytometer. Cells were seeded into 96 well plate at a density of 10,000 cells/100 μl/well and incubated at 37° C./5% CO2 for 8 hrs. Media was removed and test compounds were added in the volume of 100 μl. […] At the end of 24, 48 & 72 hrs treatment with test compound, fluorescence was measured at 530 excitation and 590 nm emissions using a micro plate reader. Viability expressed as % control was plotted against drug concentration.
The mean value of duplicate wells was calculated. […] The percentage of cell viability of test samples was calculated as:
[formula] IC50 values were determined by nonlinear regression analysis (curve fit) of percent viability data against drug concentration using the sigmoidal dose-response (variable) equation (Graph Pad Prism 4 software).
(In general: The colour change of resazurin is a common sign of viable cells or microbes.)

For the compound `CCCCCCCC[C@@H](O)CCCCCCC(=O)O` [(R)-8-HHA, 8(R)-hydroxypalmitic acid], the “reduced the survival of HOP92 cell lines by” value in assay [1] came out at 13%.

Take `CCCCCCCC[C@H](O)CCCCCCC(=O)O` [(S)-8-HHA, 8(S)-hydroxypalmitic acid]: the “effect on survival of SNU cell line” value in assay [2] was ~75%. Also, the PARP cleavage result in assay [3] and in assay [9] was “resulted in the PARP cleavage” each time. The “reduced the survival of HOP92 cell lines by” value in assay [1] was 72%. The pIC50 was ~4.05 in assay [1] (Homo sapiens, HOP-92, 20-100 μM, read-out: 50% reduction in cell survival (IC50)) and ~4.30 in assay [4] (Homo sapiens, PLC-5, 20-100 μM, read-out: 50% reduction in cell survival (IC50)). In addition, the “reduced the survival of PLC-5 cell line by” value in [4] (100 μM) is recorded as ~75%. Also, the “FAS receptor levels compared to the control” value in [5] is recorded as “substantial reduction in FAS receptor levels”. Besides, the “reduced the survival of Hep3B cell line by” value in [6] is ~75%. For the same compound, in [7], the FAS protein levels entry was “reduction of FAS protein levels”. Moreover, the “Bim1 increase compared to the control sample” value in [8] came to 2 fold.

As to `CC(C)(C)c1ccc(C(O)CCCN2CCC(C(O)(c3ccccc3)c3ccccc3)CC2)cc1` (stereo not shown) [Terfenadine], the “HeLa cell viability, result in words” value in assay [10] is “dose dependent inhibition”.

As usually defined, the pIC50 is the IC50 on a negative log10 scale, so that one unit is a factor of ten.
